This note sets out measurements from patent publication US9238656B2, “Imidazo[4,5-b]pyridine derivatives as ALK and JAK modulators for the treatment of proliferative disorders” (priority 2012, dated 2016).

pIC50: −log10 of the molar value. Structures can show the parent of a compound that is named as a salt. Where two headings read alike, the source gives them in different places. Some results are limits rather than exact numbers.

The assay deals with baculovirus-expressed JAK2 kinase (Homo sapiens, UniProt O60674). The assay is described as follows: biochemical. As to conditions: read-out: JAK2 Potency. The procedure:
Compounds were tested for their ability to inhibit the kinase activity of baculovirus-expressed JAK2 kinase using the time-resolved fluorescence (TRF) detection system. […] The plates were coated with 100 μL/well of 10 μg/mL Neutravidin (Pierce #31000, Rockford, Ill.) in TBS at 37° C. for 2 h, followed by 100 μL/well of 1 μg/mL 15-mer peptide substrate (biotinyl-amino-hexanoyl-[…]-amide, Infinity Biotech Research and Resource, Aston, Pa.) at 37° C. for 1 h. […] Enzyme (15 ng/mL JAK2) was added and the reaction was allowed to proceed at room temperature for 20 min. […] Inhibition data were analyzed using ActivityBase (IDBS, Guilford, UK). IC50 values were calculated by plotting percent inhibition versus log10 of the concentration of compound and fitting to the nonlinear regression sigmoidal dose-response (variable slope) equation in XLFit (IDBS, Guilford, UK).

baculovirus-expressed JAK2 kinase, sequence (O60674 whole entry): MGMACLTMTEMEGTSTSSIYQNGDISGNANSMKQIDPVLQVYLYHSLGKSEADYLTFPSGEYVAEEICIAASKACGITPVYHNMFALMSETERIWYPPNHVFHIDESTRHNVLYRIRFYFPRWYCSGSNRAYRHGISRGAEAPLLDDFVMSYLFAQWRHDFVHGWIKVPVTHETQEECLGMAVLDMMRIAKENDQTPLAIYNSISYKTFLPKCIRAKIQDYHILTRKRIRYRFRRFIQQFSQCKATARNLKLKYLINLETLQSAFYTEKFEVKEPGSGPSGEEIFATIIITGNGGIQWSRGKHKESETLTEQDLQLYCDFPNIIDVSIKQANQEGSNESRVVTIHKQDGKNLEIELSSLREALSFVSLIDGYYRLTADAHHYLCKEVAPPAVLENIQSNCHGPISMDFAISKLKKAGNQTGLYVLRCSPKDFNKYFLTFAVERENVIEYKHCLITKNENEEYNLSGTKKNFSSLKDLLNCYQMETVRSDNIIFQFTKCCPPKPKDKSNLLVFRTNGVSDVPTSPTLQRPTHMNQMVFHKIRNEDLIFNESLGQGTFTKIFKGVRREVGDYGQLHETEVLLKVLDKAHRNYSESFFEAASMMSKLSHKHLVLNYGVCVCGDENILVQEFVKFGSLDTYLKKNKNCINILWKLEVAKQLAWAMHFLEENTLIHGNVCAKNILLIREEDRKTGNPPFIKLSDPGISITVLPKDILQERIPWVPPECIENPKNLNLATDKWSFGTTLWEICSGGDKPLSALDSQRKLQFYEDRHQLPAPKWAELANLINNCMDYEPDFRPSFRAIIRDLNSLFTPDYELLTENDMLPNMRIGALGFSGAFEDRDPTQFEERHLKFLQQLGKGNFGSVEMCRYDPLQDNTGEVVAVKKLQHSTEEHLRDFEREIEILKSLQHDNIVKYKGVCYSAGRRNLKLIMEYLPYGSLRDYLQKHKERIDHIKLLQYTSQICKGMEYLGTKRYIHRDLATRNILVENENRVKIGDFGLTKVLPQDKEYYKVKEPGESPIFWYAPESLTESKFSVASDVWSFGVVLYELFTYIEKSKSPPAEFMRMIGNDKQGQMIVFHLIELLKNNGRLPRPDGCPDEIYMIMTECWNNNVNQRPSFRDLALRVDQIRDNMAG

For the molecule `CN1CCN(c2ccc(-c3nc4c(N[C@H]5[C@@H](C(N)=O)[C@@H]6C=C[C@H]5C6)c(Cl)cnc4[nH]3)cc2)CC1` [Compound X, (1S,2S,3R,4R)-3-{6-Chloro-2-[4-(4-methyl-piperazin-1-yl)-phenyl]-3H-imidazo[4,5-b]pyridine-7-ylamino}-bicyclo[2.2.1]hept-5-ene-2-carboxylic acid amide trifluoroacetic acid salt], the pIC50 (0.2 μM ATP) is greater than 7.00. The same measure, in the same setting: the same measure for `COc1cc(N2CCN(C)CC2)ccc1-c1nc2c(N[C@@H]3[C@H](C(N)=O)[C@H]4C=C[C@@H]3C4)c(Cl)cnc2[nH]1` [Compound XXVIII, (1R,2R,3S,4S)-3-{6-Chloro-2-[2-methoxy-4-(4-methyl-piperazin-1-yl)-phenyl]-3H-imidazo[4,5-b]pyridin-7-ylamino}-bicyclo[2.2.1]hept-5-ene-2-carboxylic acid amide]: 6.00 to 7.00.

For `NC(=O)[C@@H]1[C@H](Nc2c(Cl)cnc3[nH]c(-c4cnn(C5CCNCC5)c4)nc23)[C@H]2C=C[C@@H]1C2` [Compound LVII, (1S,2S,3R,4R)-3-[6-Chloro-2-(1-piperidin-4-yl-1H-pyrazol-4-yl)-3H-imidazo[4,5-b]pyridine-7-ylamino]-bicyclo[2.2.1]hept-5-ene-2-carboxylic acid amide], the pIC50 (0.2 μM ATP) was greater than 7.00. Same read-out and setting: next, `NC(=O)[C@@H]1[C@H](Nc2c(Cl)cnc3[nH]c(-c4cccc(N5CCOCC5)c4)nc23)[C@H]2C=C[C@@H]1C2` [Compound VII, (1S,2S,3R,4R)-3-[6-Chloro-2-(3-morpholin-4-yl-phenyl)-3H-imidazo[4,5-b]pyridine-7-ylamino]-bicyclo[2.2.1]hept-5-ene-2-carboxylic acid amide]: greater than 7.00; `NC(=O)[C@H]1[C@@H](Nc2c(Cl)cnc3[nH]c(-c4cccc(N5CCOCC5)c4)nc23)[C@@H]2C=C[C@H]1C2` [Compound XXV, (1R,2R,3S,4S)-3-[6-Chloro-2-(3-morpholin-4-yl-phenyl)-3H-imidazo[4,5-b]pyridine-7-ylamino]-bicyclo[2.2.1]hept-5-ene-2-carboxylic acid amide]: 6.00 to 7.00. The same measure, in the same setting: next, `COc1ccc(-c2nc3c(N[C@H]4[C@@H](C(N)=O)[C@@H]5C=C[C@H]4C5)c(Cl)cnc3[nH]2)cc1` [Compound VI, (1S,2S,3R,4R)-3-[6-Chloro-2-(4-methoxy-phenyl)-3H-imidazo[4,5-b]pyridine-7-ylamino]-bicyclo[2.2.1]hept-5-ene-2-carboxylic acid amide]: greater than 7.00; `COc1cccc(-c2nc3c(N[C@H]4[C@@H](C(N)=O)[C@@H]5C=C[C@H]4C5)c(Cl)cnc3[nH]2)c1` [Compound V, (1S,2S,3R,4R)-3-[6-Chloro-2-(3-methoxy-phenyl)-3H-imidazo[4,5-b]pyridin-7-ylamino]-bicyclo[2.2.1]hept-5-ene-2-carboxylic acid amide]: greater than 7.00; `COc1cc(N2CCC(N3CCN(C)CC3)CC2)ccc1-c1nc2c(N[C@H]3[C@@H](C(N)=O)[C@@H]4C=C[C@H]3C4)c(Cl)cnc2[nH]1` [Compound XXIII, (1S,2S,3R,4R)-3-(6-Chloro-2-{2-methoxy-4-[4-(4-methyl-piperazin-1-yl)-piperidin-1-yl]-phenyl}-3H-imidazo[4,5-b]pyridin-7-ylamino)-bicyclo[2.2.1]hept-5-ene-2-carboxylic acid amide]: greater than 7.00.

For the molecule `CN1CCN(c2ccc(-c3nc4c(N[C@@H]5[C@H](C(N)=O)[C@H]6C=C[C@@H]5C6)c(Cl)cnc4[nH]3)cc2)CC1` [Compound XXVI, (1R,2R,3S,4S)-3-{6-Chloro-2-[4-(4-methyl-piperazin-1-yl)-phenyl]-3H-imidazo[4,5-b]pyridine-7-ylamino}-bicyclo[2.2.1]hept-5-ene-2-carboxylic acid amide], the pIC50 (0.2 μM ATP) was greater than 7.00. Regarding “4-{2-[7-((1R,2R,3S,4S)-3-Carbamoyl-bicyclo[2.2.1]hept-5-en-2-ylamino)-6-chloro-3H-imidazo[4,5-b]pyridine-2-yl}-5-methoxy-phenyl]-piperidinej-1-carboxylic acid tert-butyl ester [Compound XXIX]”, the pIC50 is 5.00 to 6.00.
